Measured values from patent US9675699B2, “Cooling enhancing compositions” (International Flavors & Fragrances Inc., priority 2011, dated 2017).

Experiments:
cooling = assay: Inherent cooling of materials tasted alone in water; type: in vivo, human
[1] = test system: cooling profile of menthol; assay: Example II: cooling profile versus 5 ppm menthol control, group of five trained panelists; type: in vivo, human; conditions: for Average Increase: versus 5 ppm menthol control
Experimental: Responsible actives were determined by comparing the cooling profile of menthol alone (the control) against the solutions with either menthol or cooling enhancing compositions or menthol with the active(s). The profile attributes consist of onset, location, intensity and duration of cooling. Control: 5mg menthol/1 Liter of water (=5 ppm) The use level of 5 ppm is a standard use level within our research facility when looking for cooling enhancement. The levels of the actives were determined after tasting them at varying concentrations within the range of 1 ppm to 200 ppm. The levels presented were deemed to be optimal by offering the greatest functionality. The cooling enhancing compositions listed below were dosed on top of the menthol control. The results below were obtained by a group of five trained panelists.)

cooling strength = conditions: with respect to WS-3 = 10.0; cited from earlier work
[2] = 5 ppm Menthol + 50 ppm test substance in water
[3] = 5 ppm Menthol + 50 ppm test substance

O=C1C[C@@H](c2ccc(O)c(O)c2)Oc2cc(O)cc(O)c21 [Eriodictyol]
inherent cooling (taste observation) (cooling; 35 ppm in water): slight irritation (piperin-like burn) without cooling
Taste Descriptors [1, 2]: Cooling localized on middle of tongue stronger than control, more intense in back of throat on breath-in, does not trigger a faster onset, cooling builds more after expectorating and on breath-in, sharpened the intensity of cooling in the center and sides of tongue and roof of mouth
Average Increase [1, 3]: 56%

COc1ccc([C@@H]2CC(=O)c3c(O)cc(O)cc3O2)cc1O [Hesperetin]
Taste Descriptors [1, 2]: Sweet, no impact on cooling, slightly bitter, drying, cooling is delocalized and about the same strength as control
Average Increase [1, 3]: 0%

COc1cc([C@@H]2CC(=O)c3c(O)cc(O)cc3O2)ccc1O [Homoeriodictyol]
inherent cooling (taste observation) (cooling; 5 ppm in water): taste neutral, slightly drying, no cooling
inherent cooling (taste observation) (cooling; 25 ppm in water): drying, not cooling
Taste Descriptors ([1]; 5 ppm Menthol + 5 ppm test substance in water): faster onset of cooling than menthol alone, cooling localized on front of tongue, cold as in temperature, slight teeth cooling, fully delocalized cooling after 10 seconds reaching back of throat and roof of mouth, mild cooling on breath-in, diminished menthol burn
Average Increase ([1]; 5 ppm Menthol + 5 ppm test substance): 66%

O=c1cc(-c2ccc(O)c(O)c2)oc2cc(O)cc(O)c12 [Luteolin]
inherent cooling (taste observation) (cooling; 50 ppm in water): slightly stale flavor, no cooling
Taste Descriptors [1, 2]: Equivalent cooling as compared to control, localized on front tip of tongue, gums and roof of mouth, did not expedite onset but smoothed upfront mouthfeel, slight irritation to tongue and back of mouth/ throat cavity
Average Increase [1, 3]: 32%

CC1CCC(C(C)C)C(O)C1 (stereo not drawn) [Menthol]
Taste Descriptors ([1]; 5 ppm Menthol alone in water (control)): thin and moderate cooling, slight burn, some bitterness, cooling on front, tip of tongue and gums, mild cooling on breath-in, slightly harsh and sharp

CC1CCC(C(C)C)C(OC(=O)C(C)O)C1 (stereo not drawn) [Menthyl Lactate]
relative cooling strength (cooling strength): about 2.9

CNC(=O)C1C(C)CCCC1(C)C (stereo not drawn) [N,2,2,6-Tetramethylcyclohexane-l-carboxamide]
relative cooling strength (cooling strength): about 1.0

CCNC(=O)C1CC(C)CCC1C(C)C (stereo not drawn) [WS-3]
relative cooling strength (cooling strength): 10.0

CCOC(=O)CNC(=O)[C@@H]1C[C@H](C)CC[C@H]1C(C)C [WS-5]
relative cooling strength (cooling strength): about 16.7

CC(C)[C@@H]1CC[C@@H](C)C[C@H]1C(=O)NC(C)(C)C [WS-14]
relative cooling strength (cooling strength): about 5.0

CNC(=O)C(C)(C(C)C)C(C)C [WS-23]
relative cooling strength (cooling strength): about 5.0

CC1CCC(C(C)C)C(C(=O)OCC(O)CO)C1 (stereo not drawn) [WS-30]
relative cooling strength (cooling strength): about 1.5

CC(C)[C@@H]1CC[C@@H](C)C[C@H]1OC(=O)CCCC(=O)O [monomenthyl glutarate]
relative cooling strength (cooling strength): about 3.5
